Columns and labels:
human TLR8 = target: T1, human TLR8 (Homo sapiens, UniProt Q9NR97); assay: HEK293-Blue-hTLR8 cells assay (NF-κB SEAP reporter); assay type: cell-based; conditions: 20 hours incubation, agonism
T1 construct: host or cells: HEK293-Blue-hTLR8 (HEK293)
T1 sequence (Q9NR97 27-1041): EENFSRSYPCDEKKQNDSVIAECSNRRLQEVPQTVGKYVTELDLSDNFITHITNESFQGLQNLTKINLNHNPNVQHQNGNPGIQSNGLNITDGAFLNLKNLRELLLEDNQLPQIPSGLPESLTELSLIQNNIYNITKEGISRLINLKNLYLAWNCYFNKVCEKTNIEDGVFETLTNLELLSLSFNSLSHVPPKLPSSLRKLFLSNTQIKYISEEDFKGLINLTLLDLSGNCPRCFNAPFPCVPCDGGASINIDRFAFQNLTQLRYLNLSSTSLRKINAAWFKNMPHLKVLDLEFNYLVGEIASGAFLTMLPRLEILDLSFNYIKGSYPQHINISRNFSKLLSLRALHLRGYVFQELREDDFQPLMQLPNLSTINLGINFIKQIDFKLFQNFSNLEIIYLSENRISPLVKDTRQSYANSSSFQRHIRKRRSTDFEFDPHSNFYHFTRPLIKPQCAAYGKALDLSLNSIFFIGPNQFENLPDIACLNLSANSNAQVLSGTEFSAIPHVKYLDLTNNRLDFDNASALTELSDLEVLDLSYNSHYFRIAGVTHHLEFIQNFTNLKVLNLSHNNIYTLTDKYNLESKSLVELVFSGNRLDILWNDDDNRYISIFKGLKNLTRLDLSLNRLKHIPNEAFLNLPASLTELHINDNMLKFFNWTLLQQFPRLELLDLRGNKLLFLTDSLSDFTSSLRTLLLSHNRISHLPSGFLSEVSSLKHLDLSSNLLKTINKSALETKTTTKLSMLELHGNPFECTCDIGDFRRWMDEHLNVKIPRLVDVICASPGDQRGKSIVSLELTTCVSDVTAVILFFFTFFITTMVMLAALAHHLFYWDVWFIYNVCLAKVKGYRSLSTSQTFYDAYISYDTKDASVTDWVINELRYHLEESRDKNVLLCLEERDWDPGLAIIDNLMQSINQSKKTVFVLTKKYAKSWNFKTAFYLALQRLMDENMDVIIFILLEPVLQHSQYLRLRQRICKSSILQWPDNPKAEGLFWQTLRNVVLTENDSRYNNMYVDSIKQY
From the text: A stable HEK293-Blue-hTLR8 cell line was purchased from InvivoGen (Cat. #: hkb-htlr8, San Diego, California, USA). These cells were designed for studying the stimulation of human TLR8 by monitoring the activation of NF-κB. A SEAP (secreted embryonic alkaline phosphatase) reporter gene was placed under the control of the IFN-β minimal promoter fused to five NF-κB and AP-1-binding sites. The SEAP was induced by activating NF-κB and AP-1 via stimulating HEK-Blue hTLR8 cells with TLR8 ligands. Therefore the reporter expression was regulated by the NF-κB promoter upon stimulation of human TLR8. The cell culture supernatant SEAP reporter activity was determined using QUANTI-Blue™ kit (Cat. #: rep-qbl, Invivogen, San Diego, Ca, USA) at a wavelength of 650 nm, a detection medium that turns purple to blue in the presence of alkaline phosphatase.
HEK293-Blue-hTLR8 cells were incubated at a density of 250,000-450,000 cells/mL in a volume of 180 μL in a 96-well plate in Dulbecco's Modified Eagle's medium (DMEM) containing 4.5 g/L glucose, 100 U/mL penicillin, 100 μg/mL streptomycin, 100 μg/mL Normocin, 1% (V/V) GlutaMAX™, 10% (v/v) heat-inactivated fetal bovine serum for 24 hours. Then the HEK293-Blue-hTLR8 cells were incubated with addition of 20 μL test compound in a serial dilution in the presence of final DMSO at 1% and perform incubation under 37° C. in a CO2 incubator for 20 hours. Then 20 μL of the supernatant from each well was incubated with 180 μL Quanti-blue substrate solution at 37° C. for 1 hours and the absorbance was read at 620-655 nm using a spectrophotometer. The signalling pathway that TLR8 activation leads to downstream NF-κB activation has been widely accepted, and therefore similar reporter assay was also widely used for evaluating TLR8 agonist.

human TLR7 = target: T2, human TLR7 (Homo sapiens, UniProt Q9NYK1); assay: HEK293-Blue-hTLR7 cells assay (NF-κB SEAP reporter); assay type: cell-based; conditions: 20 hrs incubation, agonism
T2 construct: host or cells: HEK293-Blue-hTLR7 (HEK293)
T2 sequence (Q9NYK1 27-1049): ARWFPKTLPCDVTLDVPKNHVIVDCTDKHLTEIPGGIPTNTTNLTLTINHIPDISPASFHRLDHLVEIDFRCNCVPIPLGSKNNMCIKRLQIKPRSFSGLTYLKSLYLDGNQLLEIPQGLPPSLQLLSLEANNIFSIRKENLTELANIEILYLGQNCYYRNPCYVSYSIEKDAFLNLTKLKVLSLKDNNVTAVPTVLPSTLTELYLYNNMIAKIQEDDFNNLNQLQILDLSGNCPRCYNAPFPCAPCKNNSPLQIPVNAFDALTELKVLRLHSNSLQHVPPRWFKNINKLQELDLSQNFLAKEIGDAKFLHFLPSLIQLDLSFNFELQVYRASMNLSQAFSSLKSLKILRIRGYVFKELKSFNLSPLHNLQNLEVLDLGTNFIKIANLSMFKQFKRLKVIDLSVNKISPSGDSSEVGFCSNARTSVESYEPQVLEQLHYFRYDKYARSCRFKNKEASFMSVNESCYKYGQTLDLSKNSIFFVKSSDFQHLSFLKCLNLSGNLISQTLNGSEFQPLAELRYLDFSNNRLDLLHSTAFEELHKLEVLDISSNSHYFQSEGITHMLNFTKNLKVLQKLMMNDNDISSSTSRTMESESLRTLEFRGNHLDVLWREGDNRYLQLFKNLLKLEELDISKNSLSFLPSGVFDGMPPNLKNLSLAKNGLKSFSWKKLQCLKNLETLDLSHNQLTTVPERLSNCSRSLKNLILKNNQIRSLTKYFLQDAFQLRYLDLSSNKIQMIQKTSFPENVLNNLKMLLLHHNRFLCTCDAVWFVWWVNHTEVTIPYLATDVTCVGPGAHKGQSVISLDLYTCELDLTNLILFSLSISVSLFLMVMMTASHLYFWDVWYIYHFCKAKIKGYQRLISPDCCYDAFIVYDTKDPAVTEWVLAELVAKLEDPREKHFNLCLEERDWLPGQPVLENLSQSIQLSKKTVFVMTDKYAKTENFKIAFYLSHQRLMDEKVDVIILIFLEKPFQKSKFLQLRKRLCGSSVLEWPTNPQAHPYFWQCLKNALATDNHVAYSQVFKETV
From the text: A stable HEK293-Blue-hTLR7 cell line was purchased from InvivoGen (Cat. #: hkb-htlr7, San Diego, California, USA). These cells were designed for studying the stimulation of human TLR7 by monitoring the activation of NF-κB. A SEAP (secreted embryonic alkaline phosphatase) reporter gene was placed under the control of the IFN-β minimal promoter fused to five NF-κB and AP-1-binding sites. The SEAP was induced by activating NF-κB and AP-1 via stimulating HEK-Blue hTLR7 cells with TLR7 ligands. Therefore the reporter expression was regulated by the NF-κB promoter upon stimulation of human TLR7 for 20 hrs. The cell culture supernatant SEAP reporter activity was determined using QUANTI-Blue™ kit (Cat. #: rep-qbl, Invivogen, San Diego, Ca, USA) at a wavelength of 650 nm, a detection medium that turns purple or blue in the presence of alkaline phosphatase.
HEK293-Blue-hTLR7 cells were incubated at a density of 250,000˜450,000 cells/mL in a volume of 180 μL in a 96-well plate in Dulbecco's Modified Eagle's medium (DMEM) containing 4.5 g/L glucose, 100 U/mL penicillin, 100 μg/mL streptomycin, 100 μg/mL Normocin, 1% (V/V) GlutaMAX™, 10% (V/V) heat-inactivated fetal bovine serum for 24 hrs. Then the HEK293-Blue-hTLR-7 cells were incubated with addition of 20 μL test compound in a serial dilution in the presence of final DMSO at 1% and perform incubation under 37° C. in a CO2 incubator for 20 hrs. Then 20 μL of the supernatant from each well was incubated with 180 μL Quanti-blue substrate solution at 37° C. for 1 hours and the absorbance was read at 620-655 nm using a spectrophotometer. The signalling pathway that TLR7 activation leads to downstream NF-κB activation has been widely accepted, and therefore similar reporter assay was also widely used for evaluating TLR7 agonist (Tsuneyasu Kaisho and Takashi Tanaka, Trends in Immunology, Volume 29, Issue 7, July 2008, […]; Hiroaki Hemmi et al, Nature Immunology 3, 196-200 (2002)).

SMILES	EC50 (human TLR8) [nM]	EC50 (human TLR7) [nM]
CCOCc1nc2c(N)nc(C)c(Sc3ccc(CN(C)C)cc3)c2[nH]1 [Example 1, 7-[4-[(dimethylamino)methyl]phenyl]sulfanyl-2-(ethoxymethyl)-6-methyl-1H-imidazo[4,5-c]pyridin-4-amine]	14	27
CCCCc1nc2c(N)nc(C)c(Sc3ccc(CN(C)C)cc3)c2n1CC(C)(C)O [Example 2, 1-[4-amino-2-butyl-7-[4-[(dimethylamino)methyl]phenyl]sulfanyl-6-methyl-imidazo[4,5-c]pyridin-1-yl]-2-methyl-propan-2-ol]	28	35
CCOCc1nc2c(N)nc(C)c([Se]c3ccc(CN(C)C)cc3)c2n1CC(C)(C)O [Example 3, 1-[4-amino-7-[4-[(dimethylamino)methyl]phenyl]selanyl-2-(ethoxymethyl)-6-methyl-imidazo[4,5-c]pyridin-1-yl]-2-methyl-propan-2-ol]	24	28
CCOCc1nc2c(N)nc(C)c(Sc3c(OC)cc(CN(C)C)cc3OC)c2[nH]1 [Example 4, 7-[4-[(dimethylamino)methyl]-2,6-dimethoxy-phenyl]sulfanyl-2-(ethoxymethyl)-6-methyl-1H-imidazo[4,5-c]pyridin-4-amine]	20	1
CCCN(CC)Cc1ccc(Sc2c(C)nc(N)c3nc(COCC)[nH]c23)cc1 [Example 5, 2-(ethoxymethyl)-7-[4-[[ethyl(propyl)amino]methyl]phenyl]sulfanyl-6-methyl-1H-imidazo[4,5-c]pyridin-4-amine]	30	18
CCOCc1nc2c(N)nc(C)c(Sc3ccc(CN(C)CC)cc3)c2[nH]1 [Example 6, 2-(ethoxymethyl)-7-[4-[[ethyl(methyl)amino]methyl]phenyl]sulfanyl-6-methyl-1H-imidazo[4,5-c]pyridin-4-amine]	10	15
CCOCc1nc2c(N)nc(C)c(Sc3ccc(CN(C)C)cc3)c2n1C [Example 7, 7-[4-[(dimethylamino)methyl]phenyl]sulfanyl-2-(ethoxymethyl)-1,6-dimethyl-imidazo[4,5-c]pyridin-4-amine]	26	27
CCOCc1nc2c(N)nc(C)c(Sc3ccc(CN(C)C)cc3O)c2[nH]1 [Example 8, 2-[[4-amino-2-(ethoxymethyl)-6-methyl-1H-imidazo[4,5-c]pyridin-7-yl]sulfanyl]-5-[(dimethylamino)methyl]phenol]	26	27
CCOCc1nc2c(N)nc(C)c(Sc3ccc(CN(C)C)c(OC)c3)c2[nH]1 [Example 9, 7-[4-[(dimethylamino)methyl]-3-methoxy-phenyl]sulfanyl-2-(ethoxymethyl)-6-methyl-1H-imidazo[4,5-c]pyridin-4-amine]	3	30
CCOCc1nc2c(N)nc(C)c(SCCc3ccc(CN(C)C)cc3)c2[nH]1 [Example 10, 7-[2-[4-[(dimethylamino)methyl]phenyl]ethylsulfanyl]-2-(ethoxymethyl)-6-methyl-1H-imidazo[4,5-c]pyridin-4-amine]	10	8
CCOCc1nc2c(N)nc(C)c(Sc3ccc(CN(C)C)c(O)c3)c2[nH]1 [Example 11, 5-[[4-amino-2-(ethoxymethyl)-6-methyl-1H-imidazo[4,5-c]pyridin-7-yl]sulfanyl]-2-[(dimethylamino)methyl]phenol]	4	18
CCOCc1nc2c(N)nc(C)c(Sc3ccc(CN(C)C)c(O)c3)c2n1C [Example 12, 5-[4-amino-2-(ethoxymethyl)-1,6-dimethyl-imidazo[4,5-c]pyridin-7-yl]sulfanyl-2-[(dimethylamino)methyl]phenol]	3	10
CCOCc1nc2c(N)nc(C)c(SCCc3ccc(CN(C)C)c(O)c3)c2[nH]1 [Example 13, 5-[2-[[4-amino-2-(ethoxymethyl)-6-methyl-LH-imidazo[4,5-c]pyridin-7-yl]sulfanyl]ethyl]-2-[(dimethylamino)methyl]phenol]	19	12

Source: US20260070906A1, “IMIDAZO[4,5-C]PYRIDINE COMPOUNDS FOR THE TREATMENT OF CANCER” (Hoffmann-La Roche Inc., priority 2023, published 2026)
